Measurements reported in US7038111B2, “Method for increasing stress tolerance in plants” (The Arizona Board of Regents, priority 2001, dated 2006).

What was measured:
Assay type in all cases: in vivo, Arabidopsis thaliana
[1] = tested on: Arabidopsis wild type and los5-1 plants; test: Transpirational water loss of detached aerial parts after ABA spray; conditions: sprayed with 100 μM ABA 3 hr before detaching aerial parts
Description: To determine whether los5 mutant plants are deficient in ABA or are insensitive to ABA, wild type and los5-1 plants at the rosette stage were sprayed with 100 μM ABA 3 hr before detaching the aerial parts for water loss measurement.
For water loss measurement, plants at the rosette stage were detached from soil surface and weighed immediately in a plastic weighing boat. The boat with the plants was then placed on laboratory bench (relative humidity ˜30%) and weighed at designated time intervals. There were four replicates for each line. Percent loss of fresh weight was calculated based on the initial weight of the plants.

RD29A-LUC = RD29A-LUC luminescence expression in seedlings, ABA given together with salt or cold stress
Description: Arabidopsis thaliana (C24 ecotype) expressing the RD29A-LUC transgene (referred to as the wild type) were obtained by Agrobacterium-mediated transformation (Ishitani et al., 1997). Seeds of wild type RD29A-LUC were mutagenized by ethyl methanesulfonate (Ishitani et al., 1997). M2 were planted on 0.6% agar plates containing full strength Murashige and Skoog salt base (MS salt base; JRH Biosceicnes, Lenex, Kans.) and were germinated and grown at 22±2° C. under continuous white light. One-week-old seedlings were screened for mutants with altered RD29A-LUC (i.e. luminescence) expression in response to low temperature, ABA, or osmotic stress using a thermoelectrically cooled CCD camera. For luminescence imaging, plants were sprayed with 1 mM luciferin in 0.01% Triton X-100 and then kept in the dark for 5 min before imaging. All images were acquired with a 5 min exposure time. The luminescence intensity of each seedling was quantified with the WinView software.
For ABA treatment, 100 μM (±)-cis, trans-abscisic acid in H2O was sprayed uniformly on leaves of seedlings and the plants were incubated at room temperature under cool-white light for 4 hr (for luminescence imaging) or 3 hr (for RNA analysis). For NaCl or PEG treatment, seedlings on MS plates were transferred to filter paper saturated with MS solution supplemented with 300 mM NaCl or 30% of polyethylene glycol (molecular weight 6,000) and incubated for 5 hr. Unless otherwise stated, cold treatment for image analysis and RNA analysis were done by incubating seedlings growing in plates at 0° C. in the dark for 48 hr (for imaging) or 12 hr (for RNA analysis). Because longer treatment at −5 or −10° C. will result in freezing of the agar media, these freezing temperature treatments only lasted for 3 hr. After the treatment, the plates were placed at room temperature for 2 hr to thaw before luminescence images acquisition. For ABA plus NaCl treatment, seedlings were transferred onto a filter paper saturated with 300 mM NaCl in MS solution and sprayed immediately with 100 μM ABA. […]

LOS5/ABA3 gene = test: RNA blot analysis of LOS5/ABA3 transcript level; conditions: wild type seedlings, 100 μM ABA for 4 hr
Description: […] For NaCl or PEG treatment, seedlings on MS plates were transferred to filter paper saturated with MS solution supplemented with 300 mM NaCl or 30% of polyethylene glycol (molecular weight 6,000) and incubated for 5 hr. Unless otherwise stated, cold treatment for image analysis and RNA analysis were done by incubating seedlings growing in plates at 0° C. in the dark for 48 hr (for imaging) or 12 hr (for RNA analysis). Because longer treatment at −5 or −10° C. will result in freezing of the agar media, these freezing temperature treatments only lasted for 3 hr. After the treatment, the plates were placed at room temperature for 2 hr to thaw before luminescence images acquisition. For ABA plus NaCl treatment, seedlings were transferred onto a filter paper saturated with 300 mM NaCl in MS solution and sprayed immediately with 100 μM ABA. The plants were then incubated under cool-white light for 4 hr before luciferase imaging. For low temperature plus ABA treatment, seedlings on agar plates were briefly incubated at 0±1° C. for 10 min and then sprayed with 100 μM ABA and incubated in the dark at 0±1° C. for 48 hr before image analysis.
Ten-day-old seedlings on MS agar plates were treated were treated with cold, ABA, NaCl, or PEG as described in the above section. […] Total RNA from control or treated plants was extracted and analyzed as described (Ishitani et al., 1998). […]

Compound: CC1=CC(=O)CC(C)(C)C1(O)/C=C/C(C)=C\C(=O)O (racemic) [ABA, (±)-cis, trans-abscisic acid]
- rate of water loss ([1]; los5-1 plants at rosette stage): reduced substantially
- transpirational water loss ([1]; wild type plants at rosette stage): did not significantly affect
- RD29A-LUC expression (RD29A-LUC; los5 and los6/aba1 seedlings, 100 μM ABA administered simultaneously with 300 mM NaCl, 4 hr): restored to the wild type level or higher
- RD29A-LUC expression (RD29A-LUC; los5 mutant seedlings, 100 μM ABA together with cold, 0° C. for 48 hr): failed to restore
- RD29A-LUC luminescence expression (RD29A-LUC; los6/aba1 seedlings, 100 μM ABA together with cold, 0° C. for 48 hr): close to the wild type level
- transcript level of LOS5 (LOS5/ABA3 gene): increases significantly
